{"source": "patent US11896704B2", "about": "“Compounds useful for the treatment and/or care of the skin, hair, nails and/or mucous membranes” (LUBRIZOL ADVANCED MATERIALS, INC., priority 2017, dated 2024)", "key": {"[1]": {"system": "PER2 (period circadian clock 2)", "experiment": "PER genes expression in young and old HEKa, real time PCR: PER2", "assay_type": "cell-based, Human", "conditions": "0.5 mg/ml", "protocol": "(§1) In Vitro Study of PER Genes Expression in Young and Old Human Epidermal Keratinocytes (HEKa) Using Real Time PCR Arrays. Human Epidermal Keratinocytes, (HEKa) cells (Life Technologies) from donor one and donor two are seeded at 3.0×10^5 cells/well in 12-well plates and incubated in culture medium, Keratinocyte growth medium supplemented with Mix C39016-CaCl2 solution (Promocell). For synchronization, cells were subjected to two alternative cycles of 12 hours each at 37° C. in 5% CO2 humidified air (day mode) and 33° C. in 5% CO2 humidified air (night mode). 12 hours after starting synchronization, cells are incubated with the synthetic peptide […] (PEP-1, H-[SEQ ID. NO. 2]-NH2) at 0.5 mg/ml in culture medium. Cells treated with medium alone are used as basal condition. At the end of synchronization, cell lysates are collected at 7:30 hour (early morning point). […] After RNA elution, quantification and analysis of purity of RNA samples are performed with a nanodrop (Thermo). […] SYBR Green binds to double-stranded DNA molecules and emits fluorescence which is quantified, and the fluorescence intensity is proportional to the amount of the product in the PCR reaction. […] Fold change relative to the expression of the sample genes and reference genes is calculated using normalized expression (ΔΔ(Ct)) method using CFX Manager SoftwareTM (BioRad)."}, "[2]": {"system": "PER3 (period circadian clock 3)", "experiment": "PER genes expression in young and old HEKa, real time PCR: PER3", "assay_type": "cell-based, Human", "conditions": "0.5 mg/ml", "protocol": "as §1"}, "[3]": {"system": "Phenion Full-Thickness Skin models", "experiment": "Lipidomics profile (UHPLC-MS) in synchronized human full-thickness skin models", "assay_type": "cell-based", "conditions": "0.5 mg/ml, 48 hours of treatment, 7:30 h, one assay", "excerpt": "Analysis of Lipidomics Profile in Synchronized Human Full-Thickness Skin Models. Lipidomic profile from human skin models can be assessed by measuring using an ultrahigh performance liquid chromatography-mass spectrometry (UHPLC-MS). The main objective of this experiment is to evaluate the lipidomic profile of synchronized human skin models after the treatment with the peptide […] (PEP-1, H-[SEQ ID. NO. 2]-NH2) in order to determine ceramide skin content and the PC-DHA/PC ratio. After arrival, the Phenion® Full-Thickness Skin models ([…]) are placed in Petri dishes (5 skin models per condition) according to the supplier's instructions in ALI medium ([…]). After 72 hours incubation at 37° C., 5% CO2, a synchronization protocol is initialized. For this purpose, skin models are subjected to two alternative cycles of 12 hours each at 37° C. in 5% CO2 humidified air (day mode) and 33° C. in 5% CO2 humidified air (night mode). Skin models are treated with the peptide […] (PEP-1, H-[SEQ ID. NO. 2]-NH2) at 0.5 mg/ml both in the above surface (50 μl of treatment) of the models and within the Petri-dish containing medium. Skin models treated with medium are used as a basal control condition. This treatment is […] hours in the same conditions. […] These values are calculated for one assay. […] These values are calculated for one assay."}}}
{"substance": "H-Phe-Trp-Met-Lys-Arg-Lys-Arg-Val-Pro-NH2 (H-FWMKRKRVP-NH2) [PEP-1]", "values": [{"measurement": "Fold induction at 7:30 h respect to Basal condition (%)", "setting": "[1]; PER2, HEKa from donor one", "value": 172.0, "unit": "%"}, {"measurement": "Fold induction at 7:30 h respect to Basal condition (%)", "setting": "[1]; PER2, HEKa from donor two", "value": 292.0, "unit": "%"}, {"measurement": "Fold induction at 7:30 h respect to Basal condition (%)", "setting": "[2]; PER3, HEKa from donor one", "value": 182.5, "unit": "%"}, {"measurement": "Fold induction at 7:30 h respect to Basal condition (%)", "setting": "[2]; PER3, HEKa from donor two", "value": 249.0, "unit": "%"}, {"measurement": "Ceramides amount (%)", "setting": "[3]; relative to basal condition 7:30 h", "value": 147.6, "unit": "%"}, {"measurement": "Percentage PC-DHA/PC ratio (%)", "setting": "[3]; relative to basal conditions 7:30 h", "value": 120.2, "unit": "%"}]}
